A short description of one assay: cells. In kind it is functional.
The target in another assay is Cytochrome P450 3A4 (Homo sapiens, UniProt P08684).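 Further: CYP3A4 tested as one member of a cytochrome P450 panel screen.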
The target in the next assay is T1, Hexokinase-1 (Homo sapiens, UniProt P19367).
T1 sequence (P19367 whole entry): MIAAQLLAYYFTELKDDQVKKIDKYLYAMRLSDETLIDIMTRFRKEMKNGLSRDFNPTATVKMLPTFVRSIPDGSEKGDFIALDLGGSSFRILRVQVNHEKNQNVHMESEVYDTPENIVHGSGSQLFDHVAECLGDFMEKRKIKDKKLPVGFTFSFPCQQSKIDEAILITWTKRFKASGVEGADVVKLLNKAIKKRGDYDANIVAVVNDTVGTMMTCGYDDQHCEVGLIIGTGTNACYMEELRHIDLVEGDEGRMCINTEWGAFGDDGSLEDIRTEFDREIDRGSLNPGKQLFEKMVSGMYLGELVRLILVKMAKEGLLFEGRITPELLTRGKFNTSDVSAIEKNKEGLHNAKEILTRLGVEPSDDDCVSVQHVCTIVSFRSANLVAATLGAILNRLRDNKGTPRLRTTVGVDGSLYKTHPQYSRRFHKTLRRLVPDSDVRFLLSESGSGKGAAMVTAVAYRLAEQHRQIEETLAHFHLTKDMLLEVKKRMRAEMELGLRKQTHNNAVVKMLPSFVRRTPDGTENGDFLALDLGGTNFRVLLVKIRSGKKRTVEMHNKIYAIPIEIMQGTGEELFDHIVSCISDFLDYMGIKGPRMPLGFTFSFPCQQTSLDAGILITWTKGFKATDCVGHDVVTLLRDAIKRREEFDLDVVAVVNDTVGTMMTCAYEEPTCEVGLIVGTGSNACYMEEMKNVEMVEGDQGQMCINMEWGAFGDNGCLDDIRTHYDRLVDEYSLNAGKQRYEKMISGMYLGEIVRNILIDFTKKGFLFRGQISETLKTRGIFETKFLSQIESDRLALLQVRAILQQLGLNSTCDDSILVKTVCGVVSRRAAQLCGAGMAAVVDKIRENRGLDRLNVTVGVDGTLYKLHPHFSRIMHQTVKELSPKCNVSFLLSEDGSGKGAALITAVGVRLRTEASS
As to the kind of experiment: HK1 enzyme activation by HKDC1 hits – biochemical, selectivity assay for HKDC1 activator project, dose response (AID 504762). In kind it is functional.

The target of assay [1] is Glucose-6-phosphate 1-dehydrogenase (Homo sapiens, UniProt P11413). As to the kind of experiment: inhibition of Homo sapiens G6PD, dose series – biochemical, fluorescence, selectivity assay for P. falciparum G6PD inhibitor project, dose response (AID 504792). The assay is classed as functional.
Chain of Glucose-6-phosphate 1-dehydrogenase (P11413 whole entry): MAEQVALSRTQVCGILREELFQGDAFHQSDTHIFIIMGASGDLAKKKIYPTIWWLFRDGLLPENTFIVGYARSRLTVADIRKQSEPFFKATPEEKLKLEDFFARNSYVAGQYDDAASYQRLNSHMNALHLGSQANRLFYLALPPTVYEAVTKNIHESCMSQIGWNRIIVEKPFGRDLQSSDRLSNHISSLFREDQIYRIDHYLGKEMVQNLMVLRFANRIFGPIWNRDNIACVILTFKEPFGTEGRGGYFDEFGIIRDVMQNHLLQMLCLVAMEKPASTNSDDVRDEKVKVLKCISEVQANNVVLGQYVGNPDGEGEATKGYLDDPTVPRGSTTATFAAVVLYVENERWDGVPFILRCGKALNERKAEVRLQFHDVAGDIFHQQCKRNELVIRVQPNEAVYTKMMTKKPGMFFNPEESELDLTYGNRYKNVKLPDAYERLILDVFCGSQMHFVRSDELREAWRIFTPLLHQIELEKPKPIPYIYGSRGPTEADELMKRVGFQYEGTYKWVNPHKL
In assay [2] the target is T2, Mannose-6-phosphate isomerase (Homo sapiens, UniProt P34949).
T2 sequence (P34949 whole entry): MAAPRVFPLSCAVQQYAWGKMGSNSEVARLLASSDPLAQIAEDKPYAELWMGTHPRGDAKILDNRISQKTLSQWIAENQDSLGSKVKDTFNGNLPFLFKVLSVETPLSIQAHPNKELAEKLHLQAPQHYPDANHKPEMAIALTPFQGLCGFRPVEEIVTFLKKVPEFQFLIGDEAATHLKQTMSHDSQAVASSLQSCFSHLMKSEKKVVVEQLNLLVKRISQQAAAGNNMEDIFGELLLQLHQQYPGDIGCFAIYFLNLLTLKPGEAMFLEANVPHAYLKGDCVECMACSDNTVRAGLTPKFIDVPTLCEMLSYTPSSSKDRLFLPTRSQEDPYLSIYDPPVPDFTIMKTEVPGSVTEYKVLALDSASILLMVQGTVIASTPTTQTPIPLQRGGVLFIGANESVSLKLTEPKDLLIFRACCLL
As to the kind of experiment: MPI enzyme activity inhibition – biochemical, fluorescence intensity, coupled assay, primary screen (AID 1209).

The target in assay [3] is T3, Voltage-gated N-type calcium channel alpha-1B subunit/Amyloid beta A4 precursor protein-binding family A member 1 (Homo sapiens, UniProt Q00975+Q02410). In kind it is protein assay.
T3 sequence (Q00975 whole entry): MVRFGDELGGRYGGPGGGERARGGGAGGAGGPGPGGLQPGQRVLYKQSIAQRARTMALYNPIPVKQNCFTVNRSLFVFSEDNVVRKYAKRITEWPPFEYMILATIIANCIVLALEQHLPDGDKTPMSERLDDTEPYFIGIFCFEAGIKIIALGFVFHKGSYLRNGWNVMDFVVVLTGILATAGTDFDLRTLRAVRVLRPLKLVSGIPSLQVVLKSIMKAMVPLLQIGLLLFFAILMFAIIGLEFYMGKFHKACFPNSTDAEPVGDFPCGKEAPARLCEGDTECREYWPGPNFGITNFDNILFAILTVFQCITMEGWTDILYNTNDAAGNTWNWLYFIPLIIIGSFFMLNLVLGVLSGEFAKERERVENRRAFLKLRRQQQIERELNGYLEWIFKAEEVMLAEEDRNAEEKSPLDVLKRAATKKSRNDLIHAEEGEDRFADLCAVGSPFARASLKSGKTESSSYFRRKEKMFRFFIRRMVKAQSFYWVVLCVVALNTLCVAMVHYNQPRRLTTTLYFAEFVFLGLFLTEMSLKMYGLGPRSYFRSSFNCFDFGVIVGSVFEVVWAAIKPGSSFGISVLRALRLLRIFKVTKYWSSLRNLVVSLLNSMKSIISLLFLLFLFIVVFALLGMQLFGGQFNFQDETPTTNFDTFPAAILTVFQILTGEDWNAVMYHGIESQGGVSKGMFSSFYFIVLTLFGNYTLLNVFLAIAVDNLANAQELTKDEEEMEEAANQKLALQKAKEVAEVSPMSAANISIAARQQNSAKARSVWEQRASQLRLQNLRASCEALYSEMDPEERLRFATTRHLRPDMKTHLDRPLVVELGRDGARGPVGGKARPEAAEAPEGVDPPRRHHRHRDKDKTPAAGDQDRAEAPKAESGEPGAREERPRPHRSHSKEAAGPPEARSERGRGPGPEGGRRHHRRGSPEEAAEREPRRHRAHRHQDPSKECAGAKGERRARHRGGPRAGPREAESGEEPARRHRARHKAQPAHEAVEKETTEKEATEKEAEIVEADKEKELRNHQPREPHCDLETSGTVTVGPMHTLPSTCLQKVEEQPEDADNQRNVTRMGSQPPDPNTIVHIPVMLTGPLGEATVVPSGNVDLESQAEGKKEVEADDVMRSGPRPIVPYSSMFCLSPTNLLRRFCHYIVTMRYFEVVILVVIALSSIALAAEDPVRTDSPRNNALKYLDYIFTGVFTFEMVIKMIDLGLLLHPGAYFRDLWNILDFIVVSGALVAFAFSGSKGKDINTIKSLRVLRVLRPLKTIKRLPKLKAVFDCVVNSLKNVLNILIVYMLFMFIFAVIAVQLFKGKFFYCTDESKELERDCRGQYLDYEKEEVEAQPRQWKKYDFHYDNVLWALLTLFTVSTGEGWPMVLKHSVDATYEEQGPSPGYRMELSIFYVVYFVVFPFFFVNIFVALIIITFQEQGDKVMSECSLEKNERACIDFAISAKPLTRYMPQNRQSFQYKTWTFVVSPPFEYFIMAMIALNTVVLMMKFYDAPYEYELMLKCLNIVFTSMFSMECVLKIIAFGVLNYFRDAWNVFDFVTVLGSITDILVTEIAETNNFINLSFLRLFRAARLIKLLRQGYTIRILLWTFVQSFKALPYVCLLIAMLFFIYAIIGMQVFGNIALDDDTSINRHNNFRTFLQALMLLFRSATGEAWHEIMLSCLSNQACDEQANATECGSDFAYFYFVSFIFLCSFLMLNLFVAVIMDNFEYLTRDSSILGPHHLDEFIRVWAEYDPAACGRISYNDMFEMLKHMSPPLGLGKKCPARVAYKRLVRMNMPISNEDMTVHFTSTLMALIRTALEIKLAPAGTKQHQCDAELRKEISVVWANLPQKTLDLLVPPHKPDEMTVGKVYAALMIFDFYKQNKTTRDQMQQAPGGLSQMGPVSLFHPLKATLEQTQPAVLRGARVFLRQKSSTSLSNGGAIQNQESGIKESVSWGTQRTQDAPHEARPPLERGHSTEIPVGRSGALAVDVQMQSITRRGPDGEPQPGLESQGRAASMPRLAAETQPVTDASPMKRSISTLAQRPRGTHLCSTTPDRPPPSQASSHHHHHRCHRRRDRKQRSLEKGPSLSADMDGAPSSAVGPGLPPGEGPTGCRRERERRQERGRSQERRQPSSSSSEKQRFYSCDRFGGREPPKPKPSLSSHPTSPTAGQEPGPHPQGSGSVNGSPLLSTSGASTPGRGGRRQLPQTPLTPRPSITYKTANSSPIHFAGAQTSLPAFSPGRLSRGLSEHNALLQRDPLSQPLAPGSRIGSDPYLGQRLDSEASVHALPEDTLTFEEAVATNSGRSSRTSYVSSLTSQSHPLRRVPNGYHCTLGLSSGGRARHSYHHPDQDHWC
T3 sequence (Q02410 whole entry): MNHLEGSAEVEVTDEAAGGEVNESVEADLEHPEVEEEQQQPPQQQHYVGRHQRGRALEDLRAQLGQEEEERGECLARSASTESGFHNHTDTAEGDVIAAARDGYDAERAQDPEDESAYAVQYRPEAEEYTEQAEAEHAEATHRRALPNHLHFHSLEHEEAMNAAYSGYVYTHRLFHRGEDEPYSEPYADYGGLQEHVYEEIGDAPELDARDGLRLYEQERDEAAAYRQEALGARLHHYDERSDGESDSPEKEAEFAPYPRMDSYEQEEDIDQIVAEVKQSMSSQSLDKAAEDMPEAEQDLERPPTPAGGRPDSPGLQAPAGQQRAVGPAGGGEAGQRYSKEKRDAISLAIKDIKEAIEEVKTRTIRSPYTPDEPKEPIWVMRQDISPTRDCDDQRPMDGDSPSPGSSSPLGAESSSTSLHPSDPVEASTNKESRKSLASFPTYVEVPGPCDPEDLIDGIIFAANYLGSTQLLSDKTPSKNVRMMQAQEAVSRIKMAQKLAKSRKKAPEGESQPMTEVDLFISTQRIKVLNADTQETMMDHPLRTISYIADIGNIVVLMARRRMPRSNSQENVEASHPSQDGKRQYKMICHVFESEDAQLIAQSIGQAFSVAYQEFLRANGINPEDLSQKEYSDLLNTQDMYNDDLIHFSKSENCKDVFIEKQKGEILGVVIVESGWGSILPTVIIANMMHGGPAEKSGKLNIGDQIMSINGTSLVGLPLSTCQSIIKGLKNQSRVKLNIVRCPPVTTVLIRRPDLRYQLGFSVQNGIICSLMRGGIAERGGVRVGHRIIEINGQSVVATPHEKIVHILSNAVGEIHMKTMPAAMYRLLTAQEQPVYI
Assay [4] concerns the target T4, Low molecular weight phosphotyrosine protein phosphatase (Homo sapiens, UniProt P24666).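 Further: Dose-response confirmation assay measuring inhibition of LMPTP enzyme activity by fluorescence intensity read-out.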
T4 sequence (P24666 whole entry): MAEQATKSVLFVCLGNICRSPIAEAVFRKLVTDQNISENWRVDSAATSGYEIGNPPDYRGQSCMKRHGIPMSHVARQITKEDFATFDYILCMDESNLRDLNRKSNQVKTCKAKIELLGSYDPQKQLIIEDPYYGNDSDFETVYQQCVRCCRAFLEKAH
The assay is classed as functional. Particulars: read-out: IC50_Mean.

The target in assay [5] is DNA dC->dU-editing enzyme APOBEC-3A (Homo sapiens, UniProt P31941). As to the kind of experiment: A3A deaminase inhibition for selectivity – biochemical, dose response (AID 504722). In kind it is functional.
Chain of DNA dC->dU-editing enzyme APOBEC-3A (P31941 whole entry): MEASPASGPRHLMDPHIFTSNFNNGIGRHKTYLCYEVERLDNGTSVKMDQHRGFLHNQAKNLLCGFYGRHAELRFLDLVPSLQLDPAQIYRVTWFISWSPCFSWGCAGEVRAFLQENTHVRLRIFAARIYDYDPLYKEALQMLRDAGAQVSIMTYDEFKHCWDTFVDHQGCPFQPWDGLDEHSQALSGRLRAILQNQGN
The target of assay [6] is T3, Voltage-gated N-type calcium channel alpha-1B subunit/Amyloid beta A4 precursor protein-binding family A member 1. In kind it is protein assay. The source holds these as a separate data set.
Assay [7] has as its target DNA dC->dU-editing enzyme APOBEC-3G (Homo sapiens, UniProt Q9HC16). As to the kind of experiment: Dose Response confirmation of small molecule APOBEC3G DNA Deaminase Inhibitors via a fluorescence-based single-stranded DNA deaminase assay. [Related pubchem assays (depositor defined):AID493012, AID493028]. In kind it is functional.
Another assay deals with T5, Hexokinase HKDC1 (Homo sapiens, UniProt Q2TB90).
T5 sequence (Q2TB90 whole entry): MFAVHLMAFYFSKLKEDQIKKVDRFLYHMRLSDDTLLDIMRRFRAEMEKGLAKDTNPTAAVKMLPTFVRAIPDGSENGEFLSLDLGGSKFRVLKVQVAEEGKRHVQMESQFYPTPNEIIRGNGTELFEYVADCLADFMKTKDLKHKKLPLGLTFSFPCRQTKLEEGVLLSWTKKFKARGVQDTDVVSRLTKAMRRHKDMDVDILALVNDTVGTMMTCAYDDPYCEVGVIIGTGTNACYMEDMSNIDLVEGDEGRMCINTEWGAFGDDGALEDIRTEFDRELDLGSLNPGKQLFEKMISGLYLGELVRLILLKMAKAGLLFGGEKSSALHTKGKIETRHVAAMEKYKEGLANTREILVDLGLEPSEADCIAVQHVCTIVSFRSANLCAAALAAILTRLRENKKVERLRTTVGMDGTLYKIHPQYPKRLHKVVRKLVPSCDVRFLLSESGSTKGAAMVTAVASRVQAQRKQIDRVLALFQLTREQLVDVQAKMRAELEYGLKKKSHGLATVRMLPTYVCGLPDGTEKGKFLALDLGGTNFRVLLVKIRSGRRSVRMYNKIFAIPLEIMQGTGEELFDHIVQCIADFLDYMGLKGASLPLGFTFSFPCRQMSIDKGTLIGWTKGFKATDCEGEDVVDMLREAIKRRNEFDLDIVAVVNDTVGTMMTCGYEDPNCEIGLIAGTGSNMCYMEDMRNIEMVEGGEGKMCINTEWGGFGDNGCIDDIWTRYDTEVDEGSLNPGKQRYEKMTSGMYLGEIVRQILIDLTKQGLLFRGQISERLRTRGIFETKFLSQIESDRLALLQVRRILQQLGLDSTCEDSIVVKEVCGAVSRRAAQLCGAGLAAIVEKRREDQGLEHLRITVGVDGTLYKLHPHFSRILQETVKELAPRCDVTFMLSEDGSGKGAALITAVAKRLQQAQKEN
As to the kind of experiment: activation of HKDC1 glucose phosphorylation – biochemical, W721R variant, dose response (AID 504730). The assay is classed as functional.

Assay [8] deals with Eukaryotic translation initiation factor 4E (Mus musculus, UniProt P63073). As to the kind of experiment: blockers of eIF4G binding by eIF4E – biochemical, TR-FRET, dose response (AID 855).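 Further: potency for disrupting eIF4E binding to eIF4GI seen as loss of FRET.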 The assay is classed as functional. For orientation: TR-FRET usually uses a lanthanide donor and a delayed reading to cut background.
Chain of Eukaryotic translation initiation factor 4E (P63073 whole entry): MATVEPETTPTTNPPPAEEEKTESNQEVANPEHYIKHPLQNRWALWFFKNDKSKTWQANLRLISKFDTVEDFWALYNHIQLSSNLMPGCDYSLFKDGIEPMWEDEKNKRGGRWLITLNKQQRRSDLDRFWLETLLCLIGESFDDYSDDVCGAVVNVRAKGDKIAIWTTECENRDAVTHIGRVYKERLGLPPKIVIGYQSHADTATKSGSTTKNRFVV
The target in assay [9] is T6, Ubiquitin-conjugating enzyme E2 N (Homo sapiens, UniProt P61088).
T6 sequence (P61088 whole entry): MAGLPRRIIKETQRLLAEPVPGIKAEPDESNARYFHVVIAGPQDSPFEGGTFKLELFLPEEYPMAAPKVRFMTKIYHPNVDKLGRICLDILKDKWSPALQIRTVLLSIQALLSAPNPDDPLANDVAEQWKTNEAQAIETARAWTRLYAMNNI
In kind it is functional.

For assay [10], the target named is T6, Ubiquitin-conjugating enzyme E2 N. In kind it is functional. This is another data set of the same source.
The next assay addresses T7, Bcl-2-related protein A1 (Mus musculus, UniProt Q07440).
T7 sequence (Q07440 whole entry): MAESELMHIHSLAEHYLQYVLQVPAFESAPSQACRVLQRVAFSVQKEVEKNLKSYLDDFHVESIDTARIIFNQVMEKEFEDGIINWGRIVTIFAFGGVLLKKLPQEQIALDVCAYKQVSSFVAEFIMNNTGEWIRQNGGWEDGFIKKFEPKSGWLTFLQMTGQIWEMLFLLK
In kind it is functional.

The next assay addresses T8, Estrogen receptor (Homo sapiens, UniProt P03372).
T8 sequence (P03372 whole entry): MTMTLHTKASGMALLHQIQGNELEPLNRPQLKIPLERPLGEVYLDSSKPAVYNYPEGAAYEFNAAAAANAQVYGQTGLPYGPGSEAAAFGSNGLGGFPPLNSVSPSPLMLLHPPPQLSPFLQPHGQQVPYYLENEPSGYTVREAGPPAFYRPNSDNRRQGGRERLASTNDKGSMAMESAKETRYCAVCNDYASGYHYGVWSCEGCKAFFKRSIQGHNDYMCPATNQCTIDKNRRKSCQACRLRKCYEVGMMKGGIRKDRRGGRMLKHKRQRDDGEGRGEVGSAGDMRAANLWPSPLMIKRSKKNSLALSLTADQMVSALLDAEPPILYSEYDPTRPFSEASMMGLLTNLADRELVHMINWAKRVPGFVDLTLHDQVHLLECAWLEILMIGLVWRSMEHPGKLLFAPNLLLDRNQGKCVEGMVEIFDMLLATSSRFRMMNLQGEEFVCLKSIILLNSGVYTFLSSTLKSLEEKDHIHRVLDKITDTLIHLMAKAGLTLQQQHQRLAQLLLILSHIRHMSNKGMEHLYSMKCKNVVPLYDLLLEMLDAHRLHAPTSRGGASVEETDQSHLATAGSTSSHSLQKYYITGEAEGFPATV

A further assay has as its target Exodeoxyribonuclease V (Escherichia coli (strain K12), UniProt P04993+P07648+P08394). As to the kind of experiment: RecBCD inhibition via phage-restricted bacterial growth – absorbance, V66 E. coli, mutant T4 phage, counter-screen for AddAB inhibitor project, dose response (AID 492957). The assay is classed as functional, cell-based, Escherichia coli str. K-12 substr. MG1655. A general note: The purpose of a counterscreen is to sort out artefacts and off-target activity.

The nature of assay [11]: Counterscreen for AddAB inhibitors: absorbance-based bacterial cell-based high throughput dose response assay for inhibitors of bacterial viability. [Related pubchem assays (depositor defined):AID435030, AID449728, AID449731, AID488942, AID488955, AID488956]. In kind it is functional.

As a reminder, the AC50 is the concentration at which the activity in the assay is half-maximal. Usually EC50 stands for the concentration that produces a half-maximal response.

Active and inactive are the calls of the source.

Chain of DNA dC->dU-editing enzyme APOBEC-3G (Q9HC16 whole entry): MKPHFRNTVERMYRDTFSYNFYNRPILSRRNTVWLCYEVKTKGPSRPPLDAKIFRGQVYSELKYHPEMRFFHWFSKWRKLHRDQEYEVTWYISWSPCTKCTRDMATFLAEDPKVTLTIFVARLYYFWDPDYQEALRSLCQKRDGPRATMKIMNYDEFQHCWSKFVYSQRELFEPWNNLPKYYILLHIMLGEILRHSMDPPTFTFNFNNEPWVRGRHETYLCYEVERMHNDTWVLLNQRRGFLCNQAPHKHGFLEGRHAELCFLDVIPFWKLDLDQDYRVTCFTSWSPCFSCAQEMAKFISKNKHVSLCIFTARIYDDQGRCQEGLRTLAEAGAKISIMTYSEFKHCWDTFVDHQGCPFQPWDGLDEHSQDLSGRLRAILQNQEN
Chain of Cytochrome P450 3A4 (P08684 whole entry): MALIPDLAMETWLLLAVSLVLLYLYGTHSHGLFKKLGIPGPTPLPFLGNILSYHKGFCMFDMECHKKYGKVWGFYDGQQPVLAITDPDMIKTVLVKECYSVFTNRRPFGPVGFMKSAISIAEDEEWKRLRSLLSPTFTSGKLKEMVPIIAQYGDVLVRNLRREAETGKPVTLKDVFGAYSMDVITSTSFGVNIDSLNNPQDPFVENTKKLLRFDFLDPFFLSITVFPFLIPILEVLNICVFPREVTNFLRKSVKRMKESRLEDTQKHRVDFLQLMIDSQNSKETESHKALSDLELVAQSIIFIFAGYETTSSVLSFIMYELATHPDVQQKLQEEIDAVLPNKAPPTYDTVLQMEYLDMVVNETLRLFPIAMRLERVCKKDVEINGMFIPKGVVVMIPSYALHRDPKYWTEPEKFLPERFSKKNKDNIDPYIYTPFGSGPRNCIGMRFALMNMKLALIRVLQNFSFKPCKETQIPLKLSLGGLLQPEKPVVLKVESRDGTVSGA

Take `COc1cc(/N=c2\ssnc2Cl)cc(OC)c1OC`: the IC50 is 43.6 µM (active) in “cells”; 69.4 µM (inactive) in assay [1]; 4.76 µM (active) in [2]; 10.8 µM (active) in [3]; 80 µM (inactive) in assay [4]; > 100 µM (inactive) in assay [5]. Besides, the figures for the IC50 in assay [6], in assay [7] and in assay [8] were 5.22 µM (active), 7.2 µM (active) and 20.4 µM (active), respectively. Moreover, the concentration at half-maximal activity (AC50) at Cytochrome P450 3A4 is 31.6 µM (inconclusive). The EC50 at Hexokinase-1 was 55.3 µM (inactive); at Hexokinase HKDC1, 56.9 µM (inactive).

`C#CCOCCOCCOCCNc1nc(N2CCN(C(=O)CCCCCCCCCCNC(=O)[C@@H](CCSC)n3cc(CCO)nn3)CC2)nc(N2CCN(C(=O)CCCCCCCCCCNC(=O)[C@H](CCCN=C(N)N)n3cc(C[C@@H](C)CC)nn3)CC2)n1`: the figures for the IC50 (in assay [9]; in [10]; on Bcl-2-related protein A1) were 5.55 µM (active), 3.03 µM (active) and 3.08 µM (active), respectively.

With `Cc1cccc(NC(=O)Cn2cc(C(=O)c3ccco3)c3ccccc32)c1`, the IC50 was > 50 µM (not active) against Estrogen receptor, > 119 µM (inactive) on Exodeoxyribonuclease V and > 119 µM (inactive) in [11].

The values are drawn from ChEMBL document CHEMBL1201862, “PubChem BioAssay data set” (2004).
